Laboratory results published in patent publication US6624142B2, “Trimethyl lock based tetrapartate prodrugs” (Enzon, Inc., priority 1997, dated 2003).

Tested on: s.c. Human Mammary Tumor (MX-1)
Test: Efficacy against s.c. MX-1 human mammary tumor in nude mice
Type: in vivo
Conditions: 30 mg/kg q7d × 3, iv
Experimental: Following at least one week of acclimation, tumors were established by injecting 1×10^6 (100 μl) harvested MX-1 mammary tumor cells in a single subcutaneous site, on the left axillary flank region of nude mice. The tumor injection site was observed twice weekly and measured once palpable. The tumor volume for each mouse was determined by measuring two dimensions with calipers and calculated using the formula: tumor volume ((length×width^2)/2). When tumors reached the average volume of approximately 65 mm^3, the mice were divided into their experimental groups, which consists of vehicles (20 m M Sodium PO4 in 0.6% NaCl) controls, Leu-Doxorubicin, compound 3 of Example 1a, compound 5 of Example 2a. The mice were sorted to evenly distribute tumor size, grouped into 6 mice/cage, and ear punched for permanent identification. Drugs were dosed intravenously via the tail vein once per week for three weeks (Qd7×3). Mouse weight and tumor sizes were measured at the beginning of study and twice weekly through week 5.
The overall growth of tumors was calculated as the mean tumor volume at one week following the end of the treatment. A percent treatment over control (T/C) value was also calculated when the control group's median tumor size reached approximately 800-1100 mm^3 and again at one week following treatment. The T/C value in percent is a non-quantitative indication of anti-tumor effectiveness.

COc1cccc2c1C(=O)c1c(O)c3c(c(O)c1C2=O)C[C@@](O)(C(=O)CO)C[C@@H]3O[C@H]1C[C@H](NC(=O)[C@@H](N)CC(C)C)[C@H](O)[C@H](C)O1 [Leu-Dox, Leucine-Doxorubicin, reference compound]
Tumor Vol. Mean ± SEM (Day 25-28) (Day 25-28, mean baseline tumor volume 65 mm^3): 860 ± 163 mm^3 | T/C (%) 1000 mm^3 (median tumor volume, treatment vs control, when control median reached approximately 1000 mm^3): 56.5% | % Change Mean ± SEM (Day 25-28) (tumor volume change, Day 25-28): 1373 ± 487%
